“And” between values parts separate entries of the source, which are not always exact repeats. Equal values may be shown once. Read-outs that look alike come from different tables or passages of the source.
Experiments:
[1] = first farm soil, duplicate columns A and B
[2] = first pass
Excerpt: The irrigation water at the second farm was from a different source than the first farm.

[3] = for Drainage Rate: Time (50 g), percentage relative to irrigation water / Drainage Rate: liquid eluted at 60 mins, percentage relative to irrigation water / Drainage Rate: liquid eluted at 120 mins, percentage relative to irrigation water / Liquid Eluted after 60 min / Liquid Eluted after 120 min / Time (50 g of liquid, in min) / More liquid eluted by mass than the irrigation water: first farm soil; for Liquid Eluted after 60 min / Liquid Eluted after 120 min / Time (50 g of liquid, in min): Ca formate 22 ppm by moles, HCO2H 0.33% by weight, average of two columns
Excerpt: The objective was to investigate the behavior of different irrigation water treatments and determine the relative amounts of water that passed through the soil columns. The column retention times reflect the rate at which the liquid passes through the soil. Understanding these retention times provides insights about the transport and movement of irrigation water (and any fertilizers dissolved therein) through the soil, which has implications for the volume of water passing into and through the root zone, nutrient availability to crops, leaching of contaminants, and overall soil health.
The data in Table 1 is for the average of the two soil samples.

[4] = ICP and flow injection (FIA) analyses of solutions passed through soil columns, second farm; settings: single soil sample
Excerpt: FIA was used to determine the content of the listed anion (e.g., NO3, Cl, PO4, etc.). Results are presented from a single soil sample.

[5] = 1st pass, Alternating = formic acid pass
[6] = 2nd pass, Alternating = calcium formate pass
[7] = 3rd pass, Alternating = formic acid pass
[8] = 4th pass, Alternating = calcium formate pass
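For Mn in solution passed through soil column (ICP) in this document: eluate from PVC columns holding 100 g of dry ground farm soil, analysed by ICP-OES for element content after the solution had drained through, irrigation water measured as received for reference.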

For `O=CO` [HCO2H, formic acid], the “B in solution passed through soil column (ICP)” value ([1]; 1st pass) was 4.34 ppm and 4.25 ppm, the “Ca in solution passed through soil column (ICP)” value (“Ca” for short) ([1]; 1st pass) was 268.8 ppm and 261.2 ppm and the “K in solution passed through soil column (ICP)” value ([1]; 1st pass) was 19.52 ppm and 18.52 ppm. The “Mg in solution passed through soil column (ICP)” value (shortened to “Mg”) ([1]; 1st pass) was 107.6 ppm and 103.1 ppm, the “Mn in solution passed through soil column (ICP)” value ([1]; 1st pass) was 4.40 ppm and 4.25 ppm and the “Na in solution passed through soil column (ICP)” value (“Na … (ICP)” below) ([1]; 1st pass) was 111.2 ppm and 109.8 ppm. The “P in solution passed through soil column (ICP)” value ([1]; 1st pass) was 1.06 ppm and 0.55 ppm, the “S in solution passed through soil column (ICP)” value ([1]; 1st pass) was 83.5 ppm and 74.5 ppm and the “Si in solution passed through soil column (ICP)” value (from here on “Si”) ([1]; 1st pass) was 31.3 ppm and 30.9 ppm. For the same compound, the “B in solution passed through soil column (ICP)” value ([1]; 2nd pass) was 2.42 ppm and 2.41 ppm, the “Ca” value ([1]; 2nd pass) was 173.7 ppm and 205.0 ppm and the “K in solution passed through soil column (ICP)” value ([1]; 2nd pass) was 15.36 ppm and 17.82 ppm. For the same compound, the “Mg” value ([1]; 2nd pass) was 69.7 ppm and 79.2 ppm, the “Mn in solution passed through soil column (ICP)” value ([1]; 2nd pass) was 3.32 ppm and 3.98 ppm and the “Na … (ICP)” value ([1]; 2nd pass) was 53.9 ppm and 49.3 ppm. The “P in solution passed through soil column (ICP)” value ([1]; 2nd pass) was 1.01 ppm and 0.73 ppm, the “S in solution passed through soil column (ICP)” value ([1]; 2nd pass) was 22.8 ppm and 22.1 ppm and the “Si” value ([1]; 2nd pass) was 34.1 ppm and 40.9 ppm. The “B in solution passed through soil column (ICP)” value ([1]; 3rd pass) was 2.09 ppm and 1.82 ppm, the “Ca” value ([1]; 3rd pass) was 167.8 ppm and 176.4 ppm and the “K in solution passed through soil column (ICP)” value ([1]; 3rd pass) was 14.81 ppm and 16.46 ppm. The “Mg” value ([1]; 3rd pass) was 66.6 ppm and 67.2 ppm, the “Mn in solution passed through soil column (ICP)” value ([1]; 3rd pass) was 5.00 ppm and 5.23 ppm and the “Na … (ICP)” value ([1]; 3rd pass) was 36.5 ppm and 31.2 ppm. The “P in solution passed through soil column (ICP)” value ([1]; 3rd pass) was 1.09 ppm and 0.90 ppm, the “S in solution passed through soil column (ICP)” value ([1]; 3rd pass) was 13.4 ppm and 11.5 ppm and the “Si” value ([1]; 3rd pass) was 46.9 ppm and 49.9 ppm. For the same compound, the “B in solution passed through soil column (ICP)” value ([1]; 4th pass) was 0.79 ppm and 0.73 ppm, the “Ca” value ([1]; 4th pass) was 130.3 ppm and 140.7 ppm and the “K in solution passed through soil column (ICP)” value ([1]; 4th pass) was 13.34 ppm and 15.64 ppm. For the same compound, the “Mg” value ([1]; 4th pass) was 50.6 ppm and 52.5 ppm, the “Mn in solution passed through soil column (ICP)” value ([1]; 4th pass) was 4.46 ppm and 4.84 ppm and the “Na … (ICP)” value ([1]; 4th pass) was 16.6 ppm and 16.4 ppm. For the same compound, the “P in solution passed through soil column (ICP)” value ([1]; 4th pass) was 1.33 ppm and 1.63 ppm, the “S in solution passed through soil column (ICP)” value ([1]; 4th pass) was 3.7 ppm and 3.6 ppm and the “Si” value ([1]; 4th pass) was 34.1 ppm and 35.3 ppm. For the same compound, the “Liquid retained by the soil samples on average” value ([2]; dry soil, second farm (FIG. 3)) was 41 to 42 mL, the “Time of first appearance of liquid from the columns on average” value ([2]; dry soil, second farm (FIG. 3)) was < 20 min and the “Amount of liquid passed through the columns compared with irrigation water at the same lengths of time” value ([2]; second farm, from 20-30 minutes up to 240 minutes) was “more than three times as much”. For the same compound, the “Drainage Rate: Time (50 g), percentage relative to irrigation water” value ([3]; 1st pass) was 50.0%, the “Drainage Rate: liquid eluted at 60 mins, percentage relative to irrigation water” value ([3]; 1st pass) was 214% and the “Drainage Rate: liquid eluted at 120 mins, percentage relative to irrigation water” value ([3]; 1st pass) was 168%. The “Liquid Eluted after 60 min” value ([3]; 1st pass) was 34.1 g, the “Liquid Eluted after 120 min” value ([3]; 1st pass) was 59.7 g and the “Time (50 g of liquid, in min)” value ([3]; 1st pass) was 90 min. The “Drainage Rate: Time (50 g), percentage relative to irrigation water” value ([3]; 2nd pass) was 50.0%, the “Drainage Rate: liquid eluted at 60 mins, percentage relative to irrigation water” value ([3]; 2nd pass) was 206% and the “Drainage Rate: liquid eluted at 120 mins, percentage relative to irrigation water” value ([3]; 2nd pass) was 198%. The “Liquid Eluted after 60 min” value ([3]; 2nd pass) was 43.9 g, the “Liquid Eluted after 120 min” value ([3]; 2nd pass) was 78.9 g and the “Time (50 g of liquid, in min)” value ([3]; 2nd pass) was 90 min. The “Drainage Rate: Time (50 g), percentage relative to irrigation water” value ([3]; 3rd pass) was 50.0%, the “Drainage Rate: liquid eluted at 60 mins, percentage relative to irrigation water” value ([3]; 3rd pass) was 189% and the “Drainage Rate: liquid eluted at 120 mins, percentage relative to irrigation water” value ([3]; 3rd pass) was 189%. For the same compound, the “Liquid Eluted after 60 min” value ([3]; 3rd pass) was 36.0 g, the “Liquid Eluted after 120 min” value ([3]; 3rd pass) was 68.3 g and the “Time (50 g of liquid, in min)” value ([3]; 3rd pass) was 90 min. The “Drainage Rate: Time (50 g), percentage relative to irrigation water” value ([3]; 4th pass) was 50.0%, the “Drainage Rate: liquid eluted at 60 mins, percentage relative to irrigation water” value ([3]; 4th pass) was 207% and the “Drainage Rate: liquid eluted at 120 mins, percentage relative to irrigation water” value ([3]; 4th pass) was 183%. The “Liquid Eluted after 60 min” value ([3]; 4th pass) was 40.5 g, the “Liquid Eluted after 120 min” value ([3]; 4th pass) was 69.5 g and the “Time (50 g of liquid, in min)” value ([3]; 4th pass) was 90 min. The “Liquid retained by the soil samples on average” value ([3]; first pass, dry soil, first farm, 100 ml added (FIG. 1)) was “about 36 ml”, the “More liquid eluted by mass than the irrigation water” value (shortened to “More liquid eluted”) ([3]; first pass) was 170-210% and the “More liquid eluted” value ([3]; fourth pass) was 180-210%. For the same compound, the “More liquid eluted” value ([3]; second pass) was 200-210%, the “More liquid eluted” value ([3]; third pass) was ~ 190% and the “B in solution passed through soil column (ICP)” value [4, 5] was 0.6 ppm. For the same compound, the “Ca” value [4, 5] was 260.7 ppm, the “Cl^− in solution passed through soil column (FIA)” value (“Cl^−” for short) [4, 5] was 304.0 ppm and the “K in solution passed through soil column (ICP)” value [4, 5] was 9.7 ppm. The “Mg” value [4, 5] was 69.3 ppm, the “NO3^− in solution passed through soil column (FIA)” value (“NO3^−” for short) [4, 5] was 0.0 ppm and the “Na … (ICP)” value [4, 5] was 345.5 ppm. The “P in solution passed through soil column (ICP)” value [4, 5] was 0.7 ppm, the “S in solution passed through soil column (ICP)” value [4, 5] was 43.8 ppm and the “Si” value [4, 5] was 31.8 ppm. For the same compound, the “B in solution passed through soil column (ICP)” value [4, 6] was 0.5 ppm, the “Ca” value [4, 6] was 312.7 ppm and the “Cl^−” value [4, 6] was 102.8 ppm. The “K in solution passed through soil column (ICP)” value [4, 6] was 9.0 ppm, the “Mg” value [4, 6] was 81.3 ppm and the “NO3^−” value [4, 6] was 0.0 ppm. The “Na … (ICP)” value [4, 6] was 175.2 ppm, the “P in solution passed through soil column (ICP)” value [4, 6] was 1.9 ppm and the “S in solution passed through soil column (ICP)” value [4, 6] was 11.4 ppm. The “Si” value [4, 6] was 43.1 ppm, the “B in solution passed through soil column (ICP)” value [4, 7] was 0.4 ppm and the “Ca” value [4, 7] was 337.4 ppm. The “Cl^−” value [4, 7] was 91.7 ppm, the “K in solution passed through soil column (ICP)” value [4, 7] was 9.9 ppm and the “Mg” value [4, 7] was 84.0 ppm. For the same compound, the “NO3^−” value [4, 7] was 0.0 ppm, the “Na … (ICP)” value [4, 7] was 79.9 ppm and the “P in solution passed through soil column (ICP)” value [4, 7] was 5.8 ppm. The “S in solution passed through soil column (ICP)” value [4, 7] was 8.0 ppm, the “Si” value [4, 7] was 51.9 ppm and the “B in solution passed through soil column (ICP)” value [4, 8] was 0.3 ppm. The “Ca” value [4, 8] was 286.6 ppm, the “Cl^−” value [4, 8] was 92.9 ppm and the “K in solution passed through soil column (ICP)” value [4, 8] was 10.6 ppm. The “Mg” value [4, 8] was 65.5 ppm, the “NO3^−” value [4, 8] was 0.0 ppm and the “Na … (ICP)” value [4, 8] was 66.1 ppm. For the same compound, the “P in solution passed through soil column (ICP)” value [4, 8] was 6.4 ppm, the “S in solution passed through soil column (ICP)” value [4, 8] was 8.3 ppm and the “Si” value [4, 8] was 65.2 ppm.
